Laboratory results from PubChem BioAssay AID328 (DTP/NCI, 2004).
Values joined by “and” are separate entries in the source; they are usually repeats but may differ in a detail not shown here. Equal values may be shown once. Inconclusive results and toxic doses are left out.

Test system: BDF1 mice, P388 leukemia ip, median survival T/C
Assay: NCI In Vivo Anticancer Drug Screen. Data for tumor model P388 Leukemia (intraperitoneal) in B6D2F1 (BDF1) mice
Conditions: endpoint: median survival time, higher = longer survival
Outline: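 Transplantable tumour in mice; compound vs vehicle dosing; survival scored; ratio of treated to control reported.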

[1] = dose: 50.0 mg/kg/injection, schedule: Q01DX009 (ip), vehicle: saline with Tween-80
[2] = dose: 100.0 mg/kg/injection, schedule: Q01DX009 (ip), vehicle: saline with Tween-80
[3] = dose: 200.0 mg/kg/injection, schedule: Q01DX009 (ip), vehicle: saline with Tween-80
[4] = dose: 100.0 mg/kg/injection, schedule: Q04DX003 (ip), vehicle: Klucel (hydroxypropylcellulose) (HPC)
[5] = dose: 200.0 mg/kg/injection, schedule: Q04DX003 (ip), vehicle: Klucel (hydroxypropylcellulose) (HPC)
[6] = dose: 400.0 mg/kg/injection, schedule: Q04DX003 (ip), vehicle: Klucel (hydroxypropylcellulose) (HPC)
[7] = dose: 100.0 mg/kg/injection, schedule: Q04DX003 (ip), vehicle: saline with Tween-80
[8] = dose: 200.0 mg/kg/injection, schedule: Q04DX003 (ip), vehicle: saline with Tween-80
[9] = dose: 400.0 mg/kg/injection, schedule: Q04DX003 (ip), vehicle: saline with Tween-80
[10] = dose: 12.5 mg/kg/injection, schedule: Q01DX009 (ip), vehicle: saline
[11] = dose: 25.0 mg/kg/injection, schedule: Q01DX009 (ip), vehicle: saline
[12] = dose: 50.0 mg/kg/injection, schedule: Q01DX009 (ip), vehicle: saline
[13] = dose: 50.0 mg/kg/injection, schedule: Q04DX003 (ip), vehicle: saline
[14] = dose: 100.0 mg/kg/injection, schedule: Q01DX009 (ip), vehicle: saline
[15] = dose: 100.0 mg/kg/injection, schedule: Q04DX003 (ip), vehicle: saline
[16] = dose: 200.0 mg/kg/injection, schedule: Q01DX009 (ip), vehicle: saline
[17] = dose: 200.0 mg/kg/injection, schedule: Q04DX003 (ip), vehicle: saline
[18] = dose: 6.25 mg/kg/injection, schedule: Q04DX003 (ip), vehicle: saline
[19] = dose: 12.5 mg/kg/injection, schedule: Q01DX009 (ip), vehicle: Klucel (hydroxypropylcellulose) (HPC)
[20] = dose: 12.5 mg/kg/injection, schedule: Q04DX003 (ip), vehicle: saline
[21] = dose: 25.0 mg/kg/injection, schedule: Q01DX009 (ip), vehicle: Klucel (hydroxypropylcellulose) (HPC)
[22] = dose: 12.5 mg/kg/injection, schedule: Q01DX009 (ip), vehicle: water
[23] = dose: 25.0 mg/kg/injection, schedule: Q01DX009 (ip), vehicle: water
[24] = dose: 50.0 mg/kg/injection, schedule: Q01DX009 (ip), vehicle: water
[25] = dose: 100.0 mg/kg/injection, schedule: Q01DX009 (ip), vehicle: water

In the case of Cc1cc2nc(CO)[nH]c2cc1C, the T/C (dose: 100.0 mg/kg/injection, schedule: Q01DX009 (ip), vehicle: Klucel (hydroxypropylcellulose) (HPC)) is reported as 100 % of control, the T/C (dose: 200.0 mg/kg/injection, schedule: Q01DX009 (ip), vehicle: Klucel (hydroxypropylcellulose) (HPC)) is reported as 86 % of control and the T/C (dose: 400.0 mg/kg/injection, schedule: Q01DX009 (ip), vehicle: Klucel (hydroxypropylcellulose) (HPC)) is reported as 95 % of control.
In the case of CCCCCCCCCCCCCCCCOCCCCCCCCCCCCCCCC, the T/C (dose: 100.0 mg/kg/injection, schedule: Q01DX009 (ip), vehicle: other) is reported as 86 % of control, the T/C (dose: 100.0 mg/kg/injection, schedule: Q04DX003 (ip), vehicle: other) is reported as 91 % of control and the T/C (dose: 200.0 mg/kg/injection, schedule: Q01DX009 (ip), vehicle: other) is reported as 86 % of control. For the same compound, the T/C (dose: 200.0 mg/kg/injection, schedule: Q04DX003 (ip), vehicle: other) was 91 % of control.
For Cc1ccnc(NS(=O)(=O)c2ccc(N=Cc3ccc(N(C)C)cc3)cc2)n1, the T/C [1] was 90 % of control, the T/C [2] was 93 % of control and the T/C [3] was 90 % of control.
With S=C(c1ccco1)N1CCOCC1 the T/C (dose: 37.5 mg/kg/injection, schedule: Q01DX009 (ip), vehicle: saline with Tween-80) was 100 % of control, the T/C (dose: 75.0 mg/kg/injection, schedule: Q01DX009 (ip), vehicle: saline with Tween-80) was 104 % of control and the T/C (dose: 150.0 mg/kg/injection, schedule: Q01DX009 (ip), vehicle: saline with Tween-80) was 118 % of control.
With CCOc1ccc(Br)cc1/C=C1\N=C(c2ccccc2)OC1=O the T/C [4] was 95 % of control, the T/C [5] was 100 % of control and the T/C [6] was 95 % of control.
In the case of O=C1CCc2c(Br)cccc21, the T/C [7] is reported as 110 % of control, the T/C [8] is reported as 115 % of control and the T/C [9] is reported as 110 % of control.
COc1ccc2c(c1)N(C)CCCC2=O was tested, and the T/C (dose: 3.12 mg/kg/injection, schedule: Q01DX009 (ip), vehicle: saline) was 91 % of control, the T/C (dose: 6.25 mg/kg/injection, schedule: Q01DX009 (ip), vehicle: saline) was 103 % of control and the T/C [10] was 91 % of control. For the same compound, the T/C [11] was 87 % of control and 91 % of control, the T/C [12] was 108 % of control and 113 % of control and the T/C [13] was 99 % of control. For the same compound, the T/C [14] was 92 % of control, the T/C [15] was 103 % of control and the T/C [16] was 89 % of control. For the same compound, the T/C [17] was 99 % of control.
N=Cc1c(O)n(-c2ccccc2)c(=O)[nH]c1=O was tested, and the T/C [2] was 112 % of control, the T/C [3] was 100 % of control and the T/C (dose: 400.0 mg/kg/injection, schedule: Q01DX009 (ip), vehicle: saline with Tween-80) was 104 % of control.
With [Cl][Rh][Cl].[NH-]c1ccc(S(=O)(=O)Nc2ccccn2)cc1.[NH-]c1ccc(S(=O)(=O)Nc2ccccn2)cc1.[NH-]c1ccc(S(=O)(=O)Nc2ccccn2)cc1.[NH-]c1ccc(S(=O)(=O)Nc2ccccn2)cc1 the T/C [7] was 108 % of control, the T/C [8] was 94 % of control and the T/C [9] was 91 % of control.
For C=CC[n+]1cccc2ccccc21, the T/C [18] was 100 % of control, the T/C [19] was 86 % of control and the T/C [20] was 95 % of control. The T/C [21] was 90 % of control and the T/C (dose: 25.0 mg/kg/injection, schedule: Q04DX003 (ip), vehicle: saline) was 109 % of control.
For CN(N/C=N/S(=O)(=O)c1ccccc1)c1ccccc1, the T/C [1] was 94 % of control and the T/C [2] was 93 % of control.
For COc1cccc2c1C(=O)c1c(O)c3c(c(O)c1C2=O)C[C@@](O)(C(C)=O)C[C@@H]3OC1CC(NC(C)=O)C(O)C(C)O1 (stereo partly drawn), the T/C (dose: 0.73 mg/kg/injection, schedule: Q01DX009 (ip), vehicle: saline) was 112 % of control, the T/C (dose: 1.1 mg/kg/injection, schedule: Q01DX009 (ip), vehicle: saline) was 175 % of control and the T/C (dose: 1.25 mg/kg/injection, schedule: Q04DX003 (ip), vehicle: saline) was 109 % of control. The T/C (dose: 1.65 mg/kg/injection, schedule: Q01DX009 (ip), vehicle: saline) was 183 % of control, the T/C (dose: 2.5 mg/kg/injection, schedule: Q01DX009 (ip), vehicle: saline) was 187 % of control and the T/C (dose: 10.0 mg/kg/injection, schedule: Q04DX003 (ip), vehicle: saline) was 172 % of control. For the same compound, the T/C [10] was 240 % of control and 191 % of control, the T/C [22] was 169 % of control and the T/C [11] was 150 % of control. The T/C [23] was 192 % of control, the T/C (dose: 44.0 mg/kg/injection, schedule: Q04DX003 (ip), vehicle: saline sonified) was 180 % of control and the T/C (dose: 44.0 mg/kg/injection, schedule: Q04DX003 (ip), vehicle: saline) was 159 % of control. The T/C [12] was 227 % of control, the T/C [24] was 204 % of control and the T/C (dose: 66.0 mg/kg/injection, schedule: Q04DX003 (ip), vehicle: saline sonified) was 175 % of control. For the same compound, the T/C (dose: 66.0 mg/kg/injection, schedule: Q04DX003 (ip), vehicle: saline) was 181 % of control, the T/C [25] was 114 % of control and the T/C (dose: 100.0 mg/kg/injection, schedule: Q04DX003 (ip), vehicle: saline sonified) was 205 % of control. The T/C [15] was 195 % of control, the T/C (dose: 150.0 mg/kg/injection, schedule: Q04DX003 (ip), vehicle: saline sonified) was 180 % of control and the T/C (dose: 150.0 mg/kg/injection, schedule: Q04DX003 (ip), vehicle: saline) was 168 % of control.
CN1C(c2ccc(Cl)cc2)OCC1(C)C (stereo not drawn) was tested, and the T/C (dose: 50.0 mg/kg/injection, schedule: Q01DX001 (ip), vehicle: saline sonified) was 100 % of control, the T/C (dose: 100.0 mg/kg/injection, schedule: Q01DX001 (ip), vehicle: saline sonified) was 100 % of control and the T/C (dose: 200.0 mg/kg/injection, schedule: Q01DX001 (ip), vehicle: saline sonified) was 100 % of control.
For O=C(NCCNCc1ccccc1)c1ccccc1, the T/C [22] was 96 % of control, the T/C (dose: 12.5 mg/kg/injection, schedule: Q04DX003 (ip), vehicle: water) was 92 % of control and the T/C (dose: 16.0 mg/kg/injection, schedule: Q01DX009 (ip), vehicle: water) was 100 % of control. The T/C [23] was 99 % of control and 122 % of control, the T/C (dose: 25.0 mg/kg/injection, schedule: Q04DX003 (ip), vehicle: water) was 95 % of control and 99 % of control and the T/C (dose: 40.0 mg/kg/injection, schedule: Q01DX009 (ip), vehicle: water) was 113 % of control. For the same compound, the T/C [24] was 103 % of control, the T/C (dose: 50.0 mg/kg/injection, schedule: Q04DX003 (ip), vehicle: water) was 97 % of control and the T/C [25] was 90 % of control. For the same compound, the T/C (dose: 100.0 mg/kg/injection, schedule: Q04DX003 (ip), vehicle: water) was 95 % of control and 99 % of control.
O=C1NC(=O)C2C3C(C(O)(c4ccccc4)c4ccccn4)=CC(/C3=C(\c3ccccc3)c3ccccn3)C12 (stereo not drawn) was tested, and the T/C [19] was 100 % of control, the T/C [21] was 113 % of control and the T/C (dose: 50.0 mg/kg/injection, schedule: Q01DX009 (ip), vehicle: Klucel (hydroxypropylcellulose) (HPC)) was 86 % of control. For the same compound, the T/C [4] was 109 % of control, the T/C [5] was 100 % of control and the T/C [6] was 100 % of control.
OC(CNc1ccc(Cl)c(Cl)c1)COc1ccc(Cl)cc1Cl (stereo not drawn) was tested, and the T/C [1] was 101 % of control, the T/C [2] was 101 % of control and the T/C [3] was 104 % of control.
In the case of O=S(=O)(O)c1ccc(O)cc1, the T/C [14] is reported as 92 % of control, the T/C [15] is reported as 105 % of control and the T/C [16] is reported as 88 % of control. The T/C [17] was 115 % of control and the T/C (dose: 400.0 mg/kg/injection, schedule: Q04DX003 (ip), vehicle: saline) was 110 % of control.
For Cc1cccc(C)c1NC(=S)N1CCC(CCCC2CCN(C(=S)Nc3c(C)cccc3C)CC2)CC1, the T/C [1] was 86 % of control, the T/C [2] was 90 % of control and the T/C [3] was 104 % of control.
In the case of CCOCCN1CCN(CCCN2c3ccccc3Sc3ccc(C(F)(F)F)cc32)CC1, the T/C [18] is reported as 107 % of control and 112 % of control, the T/C [20] is reported as 116 % of control and the T/C [13] is reported as 101 % of control.
CCCCCCCCCCC(=O)N1CCOCC1 was tested, and the T/C (dose: 25.0 mg/kg/injection, schedule: Q04DX003 (ip), vehicle: saline with Tween-80) was 100 % of control and the T/C (dose: 50.0 mg/kg/injection, schedule: Q04DX003 (ip), vehicle: saline with Tween-80) was 104 % of control.
